The results in this text go back to ChEMBL document CHEMBL5550108, “Exploiting high-energy hydration sites for the discovery of potent peptide aldehyde inhibitors of the SARS-CoV-2 main protease with cellular antiviral activity” (Bioorg Med Chem, 2024).

Structures are written as SMILES. pIC50: −log10 of the molar value. Where only a bound is given, the exact number is not on record here.

Series [1] can be described thus: Cytotoxicity against human HeLa cells expressing ACE2 assessed as cell viability measured after 24 hrs by Cell-titer glo assay. In kind it is toxicity, cell-based.
For series [2], the target named is Replicase polyprotein 1ab (Severe acute respiratory syndrome coronavirus 2, UniProt P0DTD1). Description: Inhibition of C-terminal 6-his tagged SARS-CoV-2 main protease expressed in Escherichia coli BL-21-Gold(DE3) cells using DabcylKTSAVLQSGFRKM-(Edan) as substrate preincubated for 30 mins followed by substrate addition and measured after 60 mins by fluorescence based Spectramax M2e microplate reader based analysis.

Turning to `CC(C)(C(=O)N1C[C@H]2[C@@H]([C@H]1C(=O)N[C@H](C=O)C[C@@H]1CCNC1=O)C2(C)C)c1ccccc1`, the CC50 – broadly, the concentration that lowers cell viability or growth by half – at 24 h in series [1] is more than 40 µM.
With `Cc1cccc2cc(C(=O)N3C[C@H]4[C@@H]([C@H]3C(=O)N[C@H](C=O)C[C@@H]3CCNC3=O)C4(C)C)[nH]c12`, the pIC50 (usually the negative decadic logarithm of the IC50, by convention in mol/L) in series [2] was 7.70. The CC50 at 24 h in series [1] is more than 40 µM.
`Cc1cccc2[nH]c(C(=O)N3C[C@H]4[C@@H]([C@H]3C(=O)N[C@H](C=O)C[C@@H]3CCNC3=O)C4(C)C)cc12`: in series [1], the 50% cytotoxic concentration (CC50) at 24 h was more than 40 µM.
`CC1(C)[C@@H]2[C@@H](C(=O)N[C@H](C=O)C[C@@H]3CCNC3=O)N(C(=O)C3(c4ccccc4)CC3)C[C@@H]21` showed a pIC50 in series [2] of more than 8.00. Besides, in series [1], the half-maximal cytotoxic concentration (CC50) at 24 h is more than 40 µM.
On to `CC1(C)[C@@H]2[C@@H](C(=O)N[C@H](C=O)C[C@@H]3CCNC3=O)N(C(=O)c3cc4c(C#N)cccc4[nH]3)C[C@@H]21`, for which the CC50 at 24 h in series [1] is more than 40 µM.
For the compound `CC(C)(C)CC(=O)N1C[C@H]2[C@@H]([C@H]1C(=O)N[C@H](C=O)C[C@@H]1CCNC1=O)C2(C)C`, the CC50 at 24 h in series [1] is more than 40 µM.
In the case of `CC1(C)[C@@H]2[C@@H](C(=O)N[C@H](C=O)C[C@@H]3CCNC3=O)N(C(=O)CC3CCCCC3)C[C@@H]21`, in series [1], the CC50 at 24 h was more than 40 µM.
For `CC1(C)[C@@H]2[C@@H](C(=O)N[C@H](C=O)C[C@@H]3CCNC3=O)N(C(=O)Cc3ccccc3)C[C@@H]21`, the CC50 at 24 h in series [1] was more than 40 µM.
In turn, `CC1(C)[C@@H]2[C@@H](C(=O)N[C@H](C=O)C[C@@H]3CCNC3=O)N(C(=O)c3cc4c(F)cccc4[nH]3)C[C@@H]21` showed a negative logarithm of the IC50 (pIC50) in series [2] of 7.82. Further, in series [1], the CC50 at 24 h is more than 40 µM.
In series [2], `CC1(C)[C@@H]2[C@@H](C(=O)N[C@H](C=O)C[C@@H]3CCNC3=O)N(C(=O)c3cc4ccc(F)cc4[nH]3)C[C@@H]21` had a negative-log IC50 (pIC50) of 7.82. The CC50 at 24 h in series [1] is more than 40 µM.
In the same order, the values of `CC(C)Oc1cccc2[nH]c(C(=O)N3C[C@H]4[C@@H]([C@H]3C(=O)N[C@H](C=O)C[C@@H]3CCNC3=O)C4(C)C)cc12` are 7.55 and more than 40 µM.
For `CC(C)c1ccc(Cl)c2[nH]c(C(=O)N3C[C@H]4[C@@H]([C@H]3C(=O)N[C@H](C=O)C[C@@H]3CCNC3=O)C4(C)C)cc12`, the half-maximal cytotoxic concentration (CC50) at 24 h in series [1] amounted to 26 µM.
With `CC1(C)[C@@H]2[C@@H](C(=O)N[C@H](C=O)C[C@@H]3CCNC3=O)N(C(=O)c3cc4cccc(C#N)c4[nH]3)C[C@@H]21`, the negative-log IC50 (pIC50) in series [2] was 7.70. Besides, the CC50 at 24 h in series [1] is more than 40 µM.
With `O=C[C@H](C[C@@H]1CCNC1=O)NC(=O)[C@@H]1C[C@@H](C2CCCCC2)CN1C(=O)c1cc2ccccc2[nH]1`, the 50% cytotoxic concentration (CC50) at 24 h in series [1] came to 6 µM.
As to `CC1(C)[C@@H]2[C@@H](C(=O)N[C@H](C=O)C[C@@H]3CCNC3=O)N(C(=O)c3cc4cc(F)ccc4[nH]3)C[C@@H]21`, in series [2], the negative-log IC50 (pIC50) is 7.77. For the same compound, in series [1], the cytotoxic concentration (CC50) at 24 h is more than 40 µM.
Take `CC1(C)[C@@H]2[C@@H](C(=O)N[C@H](C=O)C[C@@H]3CCNC3=O)N(C(=O)c3cc4cccc(F)c4[nH]3)C[C@@H]21`: the pIC50 in series [2] is 7.96. The CC50 at 24 h in series [1] was more than 40 µM.
`Cc1cccc([C@@H](C)C(=O)N2C[C@H]3[C@@H]([C@H]2C(=O)N[C@H](C=O)C[C@@H]2CCNC2=O)C3(C)C)c1`: the 50% cytotoxic concentration (CC50) at 24 h in series [1] is more than 40 µM.
Turning to `CCc1cccc2[nH]c(C(=O)N3C[C@H]4[C@@H]([C@H]3C(=O)N[C@H](C=O)C[C@@H]3CCNC3=O)C4(C)C)cc12`, the pIC50 in series [2] is 7.85. Also, the half-maximal cytotoxic concentration (CC50) at 24 h in series [1] is more than 40 µM.
Take `COc1cccc2cc(C(=O)N3C[C@H]4[C@@H]([C@H]3C(=O)N[C@H](C=O)C[C@@H]3CCNC3=O)C4(C)C)[nH]c12`: in series [1], the 50% cytotoxic concentration (CC50) at 24 h is more than 40 µM.
For `CC1(C)C[C@@H](C(=O)N[C@H](C=O)C[C@@H]2CCNC2=O)N(C(=O)c2cc3ccccc3[nH]2)C1`, the CC50 at 24 h in series [1] is more than 40 µM.
Still for that read-out and setting: the value for `O=C[C@H](C[C@@H]1CCNC1=O)NC(=O)[C@@H]1CC2(CC2)CN1C(=O)c1cc2ccccc2[nH]1` was more than 40 µM.
In the case of `COc1cccc2[nH]c(C(=O)N3C[C@H]4[C@@H]([C@H]3C(=O)N[C@H](C=O)C[C@@H]3CCNC3=O)C4(C)C)cc12`, the cytotoxic concentration (CC50) at 24 h in series [1] is more than 40 µM.
Turning to `CC(C)(C)CCC(=O)N1C[C@H]2[C@@H]([C@H]1C(=O)N[C@H](C=O)C[C@@H]1CCNC1=O)C2(C)C`, in series [1], the 50% cytotoxic concentration (CC50) at 24 h was more than 40 µM.
`CC1CCC(CC(=O)N2C[C@H]3[C@@H]([C@H]2C(=O)N[C@H](C=O)C[C@@H]2CCNC2=O)C3(C)C)CC1` (some centres not stated) gave a pIC50 in series [2] of 7.60. In addition, the cytotoxic concentration (CC50) at 24 h in series [1] was more than 40 µM.
Compound `CC1(C)[C@@H]2[C@@H](C(=O)N[C@H](C=O)C[C@@H]3CCNC3=O)N(C(=O)c3cc4cccc(Cl)c4[nH]3)C[C@@H]21` had a pIC50 in series [2] of more than 8.00. Also, the CC50 at 24 h in series [1] is more than 40 µM.
Turning to `CC(C)c1cccc2[nH]c(C(=O)N3C[C@H]4[C@@H]([C@H]3C(=O)N[C@H](C=O)C[C@@H]3CCNC3=O)C4(C)C)cc12`, the half-maximal cytotoxic concentration (CC50) at 24 h in series [1] is more than 40 µM.
Same read-out and setting: under `CC1(C)[C@@H]2[C@@H](C(=O)N[C@H](C=O)C[C@@H]3CCNC3=O)N(C(=O)C3(O)CCCCC3)C[C@@H]21` stands more than 40 µM.
In the case of `C[C@@H](C(=O)N1C[C@H]2[C@@H]([C@H]1C(=O)N[C@H](C=O)C[C@@H]1CCNC1=O)C2(C)C)c1ccccc1`, in series [2], the pIC50 was 7.68. Also, in series [1], the cytotoxic concentration (CC50) at 24 h is more than 40 µM.
For the compound `C[C@H](C(=O)N1C[C@H]2[C@@H]([C@H]1C(=O)N[C@H](C=O)C[C@@H]1CCNC1=O)C2(C)C)C1CCCCC1`, in series [1], the CC50 at 24 h was more than 40 µM.
Compound `C[C@@H](C(=O)N1C[C@H]2[C@@H]([C@H]1C(=O)N[C@H](C=O)C[C@@H]1CCNC1=O)C2(C)C)C1CCCCC1` showed a pIC50 in series [2] of 7.54. In series [1], the half-maximal cytotoxic concentration (CC50) at 24 h was more than 40 µM.
In series [2], `CC1(C)[C@@H]2[C@@H](C(=O)N[C@H](C=O)C[C@@H]3CCNC3=O)N(C(=O)c3cc4cccc(C(F)(F)F)c4[nH]3)C[C@@H]21` showed a negative-log IC50 (pIC50) of 7.74. Besides, the cytotoxic concentration (CC50) at 24 h in series [1] is more than 40 µM.
With `O=C[C@H](C[C@@H]1CCNC1=O)NC(=O)[C@@H]1CC(F)(F)CN1C(=O)c1cc2ccccc2[nH]1`, the pIC50 in series [2] is 7.00.
The same measure, in the same setting: under `CC(C)c1cccc2[nH]c(C(=O)N3C[C@H]4[C@@H]([C@H]3C(=O)N[C@H](C#N)C[C@@H]3CCNC3=O)C4(C)C)cc12` stands 6.40.
